From ChEMBL document CHEMBL3745634, “Synthesis, cyclooxygenase inhibition, anti-inflammatory evaluation and ulcerogenic liability of new 1,3,5-triarylpyrazoline and 1,5-diarylpyrazole derivatives as selective COX-2 inhibitors” (Bioorg Med Chem Lett, 2016)
Active and inactive are the calls of the source. The rule behind the calls is not given here.

Legend:
[1] = tested on: Rattus norvegicus; test: Antiinflammatory activity in po dosed formalin-induced rat foot paw edema model assessed as paw thickness after 3 hrs; format: functional
[2] = molecular target: T1, Prostaglandin G/H synthase 1 (Ovis aries, UniProt P05979); test: Inhibition of ovine COX1 by enzyme immuno assay
T1 sequence (P05979 whole entry): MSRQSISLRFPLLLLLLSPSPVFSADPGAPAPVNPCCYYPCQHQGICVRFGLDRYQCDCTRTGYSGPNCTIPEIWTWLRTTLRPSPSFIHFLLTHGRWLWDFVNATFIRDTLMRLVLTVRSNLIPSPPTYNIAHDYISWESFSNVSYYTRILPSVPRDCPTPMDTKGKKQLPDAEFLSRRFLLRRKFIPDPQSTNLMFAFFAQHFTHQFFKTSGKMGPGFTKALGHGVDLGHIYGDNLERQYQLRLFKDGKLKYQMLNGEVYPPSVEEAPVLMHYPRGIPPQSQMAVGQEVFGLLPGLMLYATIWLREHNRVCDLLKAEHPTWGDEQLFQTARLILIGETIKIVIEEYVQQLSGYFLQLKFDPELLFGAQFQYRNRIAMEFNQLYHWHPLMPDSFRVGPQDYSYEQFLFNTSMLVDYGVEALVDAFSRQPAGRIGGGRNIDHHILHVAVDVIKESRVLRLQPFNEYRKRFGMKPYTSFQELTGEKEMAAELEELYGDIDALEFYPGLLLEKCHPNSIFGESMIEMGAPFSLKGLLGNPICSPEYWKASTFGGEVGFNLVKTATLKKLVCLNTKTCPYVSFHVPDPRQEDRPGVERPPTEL

[3] = tested on: Rattus norvegicus; test: Ulcerogenic activity in po dosed formalin-induced rat foot paw edema model assessed as ulcer index at antiinflammatory ED50; format: toxicity, organism-based; details: in vivo
[4] = tested on: Rattus norvegicus; test: Ulcerogenic activity in formalin-induced rat foot paw edema model assessed as ulcer index at 120 umol/kg, po; format: toxicity, organism-based; details: in vivo

| IC50 [2] | Compound | ED50 [1] | UI [3] | UI [4] |
| --- | --- | --- | --- | --- |
| 2.14 µM | NS(=O)(=O)c1ccc(N2N=C(c3ccco3)CC2c2ccc(C(F)(F)F)cc2)cc1 (configuration not stated) | inactive | 1.2 | – |
| 10.2 µM | NS(=O)(=O)c1ccc(N2N=C(c3ccco3)CC2c2ccccc2)cc1 (configuration not stated) | 238 µmol/kg | 4.6 | – |
| 7.36 µM | COc1cc(C2CC(c3ccco3)=NN2c2ccc(S(N)(=O)=O)cc2)cc(OC)c1OC (configuration not stated) | 179 µmol/kg | 2.7 | – |
| 16.4 µM | NS(=O)(=O)c1ccc(N2N=C(c3cccs3)CC2c2cccs2)cc1 (configuration not stated) | 144 µmol/kg | 2.7 | – |
| 14.6 µM | NS(=O)(=O)c1ccc(N2N=C(c3cccs3)CC2c2ccco2)cc1 (configuration not stated) | 209 µmol/kg | 4.15 | – |
| 13.4 µM | COc1cc(C2CC(c3cccs3)=NN2c2ccc(S(N)(=O)=O)cc2)cc(OC)c1OC (configuration not stated) | 382 µmol/kg | – | – |
| 5.74 µM | NS(=O)(=O)c1ccc(N2N=C(c3cccs3)CC2c2ccc(C(F)(F)F)cc2)cc1 (configuration not stated) | 99 µmol/kg | 3.8 | – |
| 12.3 µM | NS(=O)(=O)c1ccc(N2N=C(c3ccco3)CC2c2cccs2)cc1 (configuration not stated) | 469 µmol/kg | 3.03 | – |
| – | Cc1ccc(-c2cc(C(F)(F)F)nn2-c2ccc(S(N)(=O)=O)cc2)cc1 [CELECOXIB] | 47 µmol/kg | 2.9 | – |
| 6.74 µM | COc1ccc(C2CC(c3ccco3)=NN2c2ccc(S(N)(=O)=O)cc2)cc1 (configuration not stated) | 232 µmol/kg | 3.13 | – |
| – | CC(C)Cc1ccc(C(C)C(=O)O)cc1 (configuration not stated) [IBUPROFEN] | 499 µmol/kg | – | 20.25 |
| 4.66 µM | NS(=O)(=O)c1ccc(N2N=C(c3ccco3)CC2c2ccc(Cl)cc2)cc1 (configuration not stated) | 404 µmol/kg | 4.12 | – |
| 9.65 µM | NS(=O)(=O)c1ccc(N2N=C(c3ccco3)CC2c2ccco2)cc1 (configuration not stated) | 383 µmol/kg | 1.2 | – |
| 8.71 µM | NS(=O)(=O)c1ccc(N2N=C(c3cccs3)CC2c2ccc(Cl)cc2)cc1 (configuration not stated) | 197 µmol/kg | 2.82 | – |
| 11.7 µM | COc1ccc(C2CC(c3cccs3)=NN2c2ccc(S(N)(=O)=O)cc2)cc1 (configuration not stated) | 204 µmol/kg | 2.97 | – |
